Laboratory results taken from patent US20240368092A1, “2,4-Dihydro-3H-1,2,4-Triazol-3-One P2X7 Antagonists” (Breye Therapeutics ApS, priority 2021, published 2024).

Columns and labels:
Assay type in all cases: cell-based
human P2X7 channel = biological target: T1, human P2X7 channel (Homo sapiens, UniProt Q99572); test: human P2X7 channel assay by automated patch-clamp (QPatch 16X); settings: HEK-293 cells expressing P2X7; current evoked by 100 microM BzATP; whole-cell, held at -80 mV; read-out: human Q-Patch (activity range)
T1 construct: expressed in transfected cells; host or cells: HEK-293
T1 sequence (Q99572 1-595): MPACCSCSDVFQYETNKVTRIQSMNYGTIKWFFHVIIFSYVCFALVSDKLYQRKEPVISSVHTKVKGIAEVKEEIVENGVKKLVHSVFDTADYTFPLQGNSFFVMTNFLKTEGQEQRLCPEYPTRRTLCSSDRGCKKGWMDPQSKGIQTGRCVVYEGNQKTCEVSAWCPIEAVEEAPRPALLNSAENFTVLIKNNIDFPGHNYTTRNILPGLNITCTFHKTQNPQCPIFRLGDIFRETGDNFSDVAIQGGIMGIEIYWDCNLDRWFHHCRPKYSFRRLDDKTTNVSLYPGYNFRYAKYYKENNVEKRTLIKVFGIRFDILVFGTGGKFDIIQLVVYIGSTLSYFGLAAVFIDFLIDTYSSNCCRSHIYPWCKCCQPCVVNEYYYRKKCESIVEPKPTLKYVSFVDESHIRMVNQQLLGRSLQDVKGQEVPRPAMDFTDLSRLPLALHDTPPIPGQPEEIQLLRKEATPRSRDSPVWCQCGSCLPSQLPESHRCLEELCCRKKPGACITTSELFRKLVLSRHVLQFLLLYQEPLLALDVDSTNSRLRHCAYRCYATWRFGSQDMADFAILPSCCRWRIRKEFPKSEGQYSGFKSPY
In short: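 Whole-cell patch clamp on HEK-293 cells expressing P2X7, room temperature, held at −80 mV, CsF internal and NaCl external (pH 7.4). Currents evoked by 100 microM BzATP, four controls then with compound at 1, 10, 100 and 1000 nM; peak inward current normalized, IC50 from dose-response fit, reported as potency bins.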

humanP2X7 = biological target: T2, humanP2X7 (Homo sapiens, UniProt Q99572); test: P2X7 channel calcium-influx assay (Fluo-8, FLIPR TETRA), human P2X7; settings: HEK-293 cells stably transfected with P2X7; Bz-ATP at EC80; low divalent cation buffer; read-out: humanP2X7 (activity range)
T2 construct: expressed in transfected cells; host or cells: HEK-293
T2 sequence (Q99572 1-595): T1 sequence (Q99572 1-595)
In short: (§1)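 HEK-293 cells stably expressing the respective species' P2X7, Fluo-8 NW loaded 1 h at RT in low divalent buffer (0.3 mM Ca2+, 0 mM Mg2+). Compound preincubated 5 min, then Bz-ATP at EC80; FLIPR calcium influx over 3 min. IC50 from % inhibition relative to reference antagonist A438079, reported as potency bins.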

mouseP2X7 = biological target: T3, mouseP2X7 (Mus musculus, UniProt Q9Z1M0); test: P2X7 channel calcium-influx assay (Fluo-8, FLIPR TETRA), mouse P2X7; settings: HEK-293 cells stably transfected with P2X7; Bz-ATP at EC80; low divalent cation buffer; read-out: mouseP2X7 (activity range)
T3 construct: expressed in transfected cells; host or cells: HEK-293
T3 sequence (Q9Z1M0 1-595): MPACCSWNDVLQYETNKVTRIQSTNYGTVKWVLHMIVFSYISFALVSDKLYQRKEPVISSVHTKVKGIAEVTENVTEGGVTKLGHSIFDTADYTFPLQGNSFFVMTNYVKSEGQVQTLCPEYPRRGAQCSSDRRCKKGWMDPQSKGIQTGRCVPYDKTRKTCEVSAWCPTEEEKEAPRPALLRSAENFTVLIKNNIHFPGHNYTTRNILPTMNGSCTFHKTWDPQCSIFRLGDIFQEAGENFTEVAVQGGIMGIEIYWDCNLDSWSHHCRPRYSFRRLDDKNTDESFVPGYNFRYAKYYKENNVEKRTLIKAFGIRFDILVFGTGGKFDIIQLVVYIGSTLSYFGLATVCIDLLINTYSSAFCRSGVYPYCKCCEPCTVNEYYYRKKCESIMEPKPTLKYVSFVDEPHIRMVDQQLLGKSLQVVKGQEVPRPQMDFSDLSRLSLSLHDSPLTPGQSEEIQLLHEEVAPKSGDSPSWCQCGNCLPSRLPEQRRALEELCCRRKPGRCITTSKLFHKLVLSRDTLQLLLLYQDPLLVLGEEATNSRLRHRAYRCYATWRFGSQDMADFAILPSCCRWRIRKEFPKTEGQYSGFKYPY
In short: as §1

ratP2X7 = biological target: T4, ratP2X7 (Rattus norvegicus, UniProt Q64663); test: P2X7 channel calcium-influx assay (Fluo-8, FLIPR TETRA), rat P2X7; settings: HEK-293 cells stably transfected with P2X7; Bz-ATP at EC80; low divalent cation buffer; read-out: ratP2X7 (activity range)
T4 construct: expressed in transfected cells; host or cells: HEK-293
T4 sequence (Q64663 1-595): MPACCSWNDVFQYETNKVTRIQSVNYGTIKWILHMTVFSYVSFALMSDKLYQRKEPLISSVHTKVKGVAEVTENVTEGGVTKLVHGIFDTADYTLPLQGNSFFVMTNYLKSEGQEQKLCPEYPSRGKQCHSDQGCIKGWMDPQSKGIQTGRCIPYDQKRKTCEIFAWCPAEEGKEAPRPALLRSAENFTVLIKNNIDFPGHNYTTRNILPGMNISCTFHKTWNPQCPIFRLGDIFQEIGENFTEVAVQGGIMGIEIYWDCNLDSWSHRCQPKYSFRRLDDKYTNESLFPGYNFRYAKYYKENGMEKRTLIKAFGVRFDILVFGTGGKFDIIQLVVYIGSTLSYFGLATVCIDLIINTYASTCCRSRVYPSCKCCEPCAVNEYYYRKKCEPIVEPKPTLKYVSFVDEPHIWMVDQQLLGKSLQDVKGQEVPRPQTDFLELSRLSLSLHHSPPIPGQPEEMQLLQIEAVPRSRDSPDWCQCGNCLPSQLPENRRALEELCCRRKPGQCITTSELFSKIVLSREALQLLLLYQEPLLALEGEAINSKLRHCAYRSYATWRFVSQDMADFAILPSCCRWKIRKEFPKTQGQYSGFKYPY
In short: as §1

| IC50 (human P2X7 channel) | IC50 (humanP2X7) | IC50 (mouseP2X7) | IC50 (ratP2X7) | Compound |
| --- | --- | --- | --- | --- |
| 100 to 1000 nM | 200 to 1000 nM | 1000 to 10000 nM | < 200 nM | Cn1nc(Cc2ccc(F)cc2Cl)n(CC2CCC3(CC2)CC3)c1=O [Example 35, 5-(2-chloro-4-fluorobenzyl)-2-methyl-4-(spiro[2.5]octan-6-ylmethyl)-2,4-dihydro-3H-1,2,4-triazol-3-one] |
| 100 to 1000 nM | 200 to 1000 nM | 1000 to 10000 nM | 200 to 1000 nM | Cn1nc(Cc2ccc(F)cc2Cl)n(CCC2CCC(F)(F)CC2)c1=O [Example 36, 5-(2-chloro-4-fluorobenzyl)-4-(2-(4,4-difluorocyclohexyl)ethyl)-2-methyl-2,4-dihydro-3H-1,2,4-triazol-3-one] |
| 100 to 1000 nM | 200 to 1000 nM | 1000 to 10000 nM | 200 to 1000 nM | Cn1nc(Cc2ccccc2C(F)(F)F)n(CCC2CCC(F)(F)CC2)c1=O [Example 39, 4-(2-(4,4-difluorocyclohexyl)ethyl)-2-methyl-5-(2-(trifluoromethyl)benzyl)-2,4-dihydro-3H-1,2,4-triazol-3-one] |
| 1000 to 10000 nM | 200 to 1000 nM | 10000 to 30000 nM | 1000 to 10000 nM | Cn1nc(Cc2ccc(F)cc2Cl)n(CCC2CCC(C)(C)CC2)c1=O [Example 41, 5-(2-chloro-4-fluorobenzyl)-4-(2-(4,4-dimethylcyclohexyl)ethyl)-2-methyl-2,4-dihydro-3H-1,2,4-triazol-3-one] |
| 10 to 100 nM | < 200 nM | 200 to 1000 nM | < 200 nM | Cn1nc(Cc2ccccc2Cl)n(CC2CCC(F)(F)CC2)c1=O [Example 42, 5-(2-chlorobenzyl)-4-((4,4-difluorocyclohexyl)methyl)-2-methyl-2,4-dihydro-3H-1,2,4-triazol-3-one] |
| 1000 to 10000 nM | 1000 to 10000 nM | 10000 to 30000 nM | 1000 to 10000 nM | Cn1nc(Cc2ccccc2F)n(CCC2CCC(C)(C)CC2)c1=O [Example 45, 4-(2-(4,4-dimethylcyclohexyl)ethyl)-5-(2-fluorobenzyl)-2-methyl-2,4-dihydro-3H-1,2,4-triazol-3-one] |

Further lines, the molecule ahead of its results:

| Compound | IC50 (human P2X7 channel) | IC50 (humanP2X7) | IC50 (mouseP2X7) | IC50 (ratP2X7) |
| --- | --- | --- | --- | --- |
| Cn1nc(Cc2ccccc2F)n(CC2CCCCCC2)c1=O [Example 37, 4-(cycloheptylmethyl)-5-(2-fluorobenzyl)-2-methyl-2,4-dihydro-3H-1,2,4-triazol-3-one] | 100 to 1000 nM | 200 to 1000 nM | 200 to 1000 nM | < 200 nM |
| Cn1nc(CC2CCCCC2)n(Cc2cc(-c3ncc(F)cn3)ccc2Cl)c1=O [Example 38, 4-(2-chloro-5-(5-fluoropyrimidin-2-yl)benzyl)-5-(cyclohexylmethyl)-2-methyl-2,4-dihydro-3H-1,2,4-triazol-3-one] | 1000 to 10000 nM | 200 to 1000 nM | 1000 to 10000 nM | 200 to 1000 nM |
| Cn1nc(Cc2ccccc2C(F)(F)F)n(CC2CCC(C(F)(F)F)CC2)c1=O (centres unmarked) [Example 40, 2-methyl-5-(2-(trifluoromethyl)benzyl)-4-((4-(trifluoromethyl)cyclohexyl)methyl)-2,4-dihydro-3H-1,2,4-triazol-3-one] | 100 to 1000 nM | < 200 nM | 1000 to 10000 nM | < 200 nM |
| O=c1n(CC2CC2)nc(Cc2c(F)cccc2Cl)n1CC1CCC(F)(F)CC1 [Example 43, 5-(2-chloro-6-fluorobenzyl)-2-(cyclopropylmethyl)-4-((4,4-difluorocyclohexyl)methyl)-2,4-dihydro-3H-1,2,4-triazol-3-one] | 10 to 100 nM | < 200 nM | < 200 nM | < 200 nM |
| O=c1n(CC(F)(F)F)nc(Cc2c(F)cccc2Cl)n1CC1CCC(F)(F)CC1 [Example 44, 5-(2-chloro-6-fluorobenzyl)-4-((4,4-difluorocyclohexyl)methyl)-2-(2,2,2-trifluoroethyl)-2,4-dihydro-3H-1,2,4-triazol-3-one] | < 10 nM | < 200 nM | < 200 nM | < 200 nM |
